# Reference: patent publication US20070037841A1, “Inhibitors” (priority 2003, published 2007)
# Key:
# [1] = system: RRE; experiment: UV absorption spectrum screening of drugs mixed with RRE; assay type: binding, HIV-1; conditions: range of 300 nm to 400 nm; absorption of free compound subtracted or compared
# Description: Referring to UV absorption spectra of RRE in the presence and absence of naphthyridine dimer, screenings of the drugs was carried out. […] In FIG. 7, the solid line indicates the UV absorption spectrum of RRE alone, and the dotted line indicates a UV absorption spectrum when the absorption of naphthyridine dimer free is subtracted from the absorption of the mixture of naphthyridine dimer and RRE. […] In FIG. 8, the solid line indicates the UV absorption spectrum of RRE alone, and the dotted line indicates a UV absorption spectrum when the absorption of the naphthyridine-azaquinolone hybrid free is subtracted from the absorption of the mixture of the naphthyridine-azaquinolone hybrid and RRE. […] In FIG. 9, the solid line indicates the UV absorption spectrum of RRE alone, and the dotted line indicates a UV absorption spectrum when the absorption of the first quinoline-containing compound free is subtracted from the absorption of the mixture of the first quinoline-containing compound and RRE. […] In FIG. 10, the solid line indicates the UV absorption spectrum of RRE alone, and the dotted line indicates a UV absorption spectrum when the absorption of the second quinoline-containing compound free is subtracted from the absorption of the mixture of the second quinoline-containing compound and RRE. As represented by structural formula (8), the second quinoline-containing compound is obtained by replacing one naphthyridine of naphthyridine dimer with a quinoline incapable of hydrogen-binding to a guanine. [drawing 13] In the present example, comparison was made within a range of 300 nm to 400 nm where no absorption of RRE occurs. Naphthyridine is represented by structural formula (9). Azaquinolone is represented by structural formula (10). […] FIGS. 11-13 respectively illustrate the UV absorption spectra of naphthyridine, azaquinolone, or quinolone alone and the mixture thereof with RRE.
# [2] = system: RRE-neg; experiment: SPR binding of RNA to naphthyridine dimer immobilized on sensor chip; conditions: RRE-neg over immobilized naphthyridine dimer
# Description: Further, a change in CD spectrum of RRE-neg due to its binding to each of the drugs was analyzed. RRE-neg has no internal loop found in RRE, the internal loop including a GG mismatch and a GA mismatch.
# (§1) In a manner shown in FIG. 17, a binding strength of each of RRE, RRE-neg, TAR, and single-stranded RNA (ss RNA) with respect to naphthyridine dimer immobilized on an SPR sensor chip was analyzed. Like RRE, TAR is known as an HIV-RNA target. In FIG. 18, the solid line indicates the binding strength of RRE, the dotted line the binding strength of RRE-neg, the dashed line the binding strength of TAR, and the double-dashed line the binding strength of ssRNA.
# [3] = system: RRE; experiment: UV titration of naphthyridine dimer with RRE; assay type: binding, HIV-1
# Description: UV titration was carried out in order to study how naphthyridine dimer bound to RRE.
# It was confirmed that as the concentration of RRE increased, the UV absorbance of naphthyridine dimer decreased and the UV absorbance of a complex increased above an isosbestic point.
# [4] = system: single-stranded RNA (ss RNA); experiment: SPR binding of RNA to naphthyridine dimer immobilized on sensor chip; conditions: ssRNA over immobilized naphthyridine dimer
# Description: as §1
# [5] = system: Rev-RRE complex; experiment: Fluorescence polarization (anisotropy) inhibition of Rev-RRE complex formation; assay type: binding, HIV-1; conditions: for IC50: Rev-Fl / RRE, read-out: IC50 value for inhibiting complex formation; for potency of inhibiting Rev-RRE complex formation compared with neomycine B: anisotropy decrease versus inhibitor concentration
# Description: By using a fluorescence polarization method, it was tested whether Rev-RRE complex formation was inhibited by naphthyridine dimer and the naphthyridine-azaquinolone hybrid.
# A greater molecular weight results in a greater polarization degree, i.e., a greater anisotropy.
# Naphthyridine dimer, the naphthyridine-azaquinolone hybrid, and neomycine B were used as inhibitors, and anisotropies of each of the inhibitors was measured. […] The horizontal axis indicates the concentration of each of the inhibitors.
# An IC50 value of the trinaphthyridine-azaquinolone hybrid used as an inhibitor was obtained by using the fluorescence polarization method. The IC50 value of the trinaphthyridine-azaquinolone hybrid was 0.2 μM. Further, in FIG. 27, the solid line indicates how a CD spectrum of RRE alone was changed, the dotted line indicates how a CD spectrum of RRE was changed when naphthyridine dimer was added to RRE, the dashed line indicates how a CD spectrum of RRE was changed when the trinaphthyridine-azaquinolone hybrid was added to RRE, and […].
# Naphthyridine dimer, the naphthyridine-azaquinolone hybrid, the neomycine B, and the trinaphthyridine-azaquinolone hybrid were used as inhibitors, and anisotropies of each of the inhibitors was measured.
# [6] = system: RRE; experiment: SPR binding of RNA to naphthyridine dimer immobilized on sensor chip; design: species or system HIV-1; conditions: RRE over immobilized naphthyridine dimer
# Description: as §1
# [7] = system: TAR; experiment: as above; design: species or system HIV; conditions: TAR RNA over immobilized naphthyridine dimer
# Description: as §1
# [8] = system: RRE; experiment: CD spectrum change of RRE (and RRE-neg control) on binding of drugs; design: species or system HIV-1; conditions: for binding specificity from CD spectra of RRE versus RRE-neg: RRE-neg has no internal loop (GG and GA mismatch)
# Description: A change in CD spectrum of RRE due to its binding to each of the drugs was analyzed. In FIG. 14, the solid line indicates a CD spectrum of RRE alone, the dotted line indicates a CD spectrum of a mixture of naphthyridine dimer and RRE, and the dashed line indicates a CD spectrum of a mixture of the naphthyridine-azaquinolone hybrid and RRE. Further, a change in CD spectrum of RRE-neg due to its binding to each of the drugs was analyzed. RRE-neg has no internal loop found in RRE, the internal loop including a GG mismatch and a GA mismatch.
smiles,measurement,setting,value
NCCC(=O)Nc1ccc2ccccc2n1,change in UV absorption spectrum on mixing with RRE,[1],almost no changes
Cc1ccc2ccc(NC(=O)CCNCCC(=O)Nc3ccc4ccccc4n3)nc2n1 [first quinoline-containing compound],change in UV absorption spectrum on mixing with RRE,[1],no remarkable changes
Cc1ccc2ccc(NC(=O)CCNCCC(=O)Nc3ccc4ccc(C)nc4n3)nc2n1 [naphthyridine dimer],binding strength (SPR signal),[2],almost no responses
same,change in UV absorption spectrum on mixing with RRE,[1],significant changes
same,binding mode to RRE from UV titration,"[3]; RRE of various concentrations, absorption at 332 nm",intercalated into a duplex of RRE
same,number of naphthyridine dimers forming the complex with RRE,[3]; UV titration,two
same,binding strength (SPR signal),[4],almost no responses
same,IC50,[5]; fluorescence polarization,1200 nM
same,potency of inhibiting Rev-RRE complex formation compared with neomycine B,[5],higher potency
same,binding strength (SPR signal),[6],strong signal
same,binding strength (SPR signal),[7],did not bind at all
same,change in CD spectrum of RRE when compound added,[8],significant change in the whole spectrum
same,binding specificity from CD spectra of RRE versus RRE-neg,[8],specifically binds to the internal loop of RRE
Cc1ccc2ccc(NC(=O)CCNCCC(=O)NCc3ccc4ccc(=O)[nH]c4n3)nc2n1 [naphthyridine-azaquinolone hybrid],change in UV absorption spectrum on mixing with RRE,[1],significant changes
same,IC50,[5]; fluorescence polarization,2000 nM
same,potency of inhibiting Rev-RRE complex formation compared with neomycine B,[5],higher potency
same,change in CD spectrum of RRE when compound added,[8],change at 300 nm or above
same,binding specificity from CD spectra of RRE versus RRE-neg,[8],specifically binds to the internal loop of RRE
"NCC1OC(OC2C(CO)OC(OC3C(O)C(N)CC(N)C3OC3OC(CN)C(O)C(O)C3N)C2O)C(N)C(O)C1O (stereo not shown) [neomycine B, reference compound]",IC50,[5]; fluorescence polarization,4000 nM
O=C(CCNCCC(=O)Nc1ccc2ccccc2n1)NCc1ccc2ccc(=O)[nH]c2n1 [second quinoline-containing compound],change in UV absorption spectrum on mixing with RRE,[1],no remarkable changes
Cc1ccc2ccc(NC(=O)CCN(CCCCCN(CCC(=O)Nc3ccc4ccc(C)nc4n3)CCC(=O)Nc3ccc4ccc(C)nc4n3)CCC(=O)NCc3ccc4ccc(=O)[nH]c4n3)nc2n1 [trinaphthyridine-azaquinolone hybrid],IC50,[5]; fluorescence polarization,200 nM
same,activity relative to neomycine B,[5]; fluorescence polarization,approximately twenty
